Values joined by “and” are separate entries in the source; they are usually repeats but may differ in a detail not shown here. Equal entries are not always repeated. Where two headings read alike, the source gives them in different places.
Key:
HSV-1 [1] = tested on: HSV-1; set-up: method as in PMID 36985562; conditions: ref [22], cited from earlier work
HSV-1 [2] = test: Treatment of virus-infected cells with polyphenols, CPE inhibition assay; assay type: cell-based, HSV-1 strain L2
Method: In order to study the mechanism of action of these compounds, two additional schemes of treatment of the virus and Vero cells with polyphenols were applied: the compounds were added before virus infection (pretreatment of cells) and after penetration of the virus into host cells (treatment of infected cells). The fourth method of exposure where the virus and polyphenols were added to cells simultaneously (simultaneous treatment) was previously described by us in [22]. The anti-HSV-1 activity of polyphenols was assessed using the cytopathic effect inhibition (CPE) assay.
The monolayer of cells was infected with the virus (100 TCID50/mL) at 37 °C for 1 h, and then the cells were washed with PBS (Sigma, Saint-Louis, MO, USA) and treated with different concentrations of the studied compounds and incubated until CPE appeared.

[3] = tested on: 6-OHDA-treated Neuro-2a cells; test: ROS analysis in 6-OHDA-treated cells (H2DCF-DA); assay type: cell-based, murine; conditions: compound 0.1 µM
Method: We studied the effect of polyphenolic compounds set on ROS levels in 6-OHDA-treated Neuro-2a cells (Figure 5a–d).
(§1) Figure 5 The effect of polyphenolic compounds isolated from M. amurensis heartwood on ROS levels in Neuro-2a cells treated with 6-OHDA (120 μM) (a–d). Polyphenolic compounds isolated from M. amurensis heartwood were used at concentrations 10, 1, 0.1 μM. The data are presented as means ± SEM of three independent replicates.
After 24 h of adhesion, Neuro-2a cells (5 × 10^4 cells/mL) were incubated with polyphenolic compounds at concentrations of 0.1, 1, and 10 µM for 1 h. Then, 120 µM of 6-OHDA or 1 mM of PQ were added to each well, and cells were incubated for 1 h. To study the ROS formation, 20 µL of 2,7-dichlorodihydrofluorescein diacetate solution (H2DCF-DA, Sigma-Aldrich, St. Louis, MO, USA) were added to each well, so that the final concentration was 10 µM. Then, the microplate was incubated for 30 min at 37 °C.

[4] = tested on: 6-OHDA-treated Neuro-2a cells; test: Apoptosis profile by flow cytometry (Annexin V & Dead Cell Kit); assay type: cell-based, murine; conditions: Table 1; polyphenols 10 µM, 6-OHDA 100 µM, 24 h; mean
Method: We investigated the effect of polyphenolic compounds from M. amurensis on apoptosis profile in 6-OHDA-treated Neuro-2a cells by flow cytometry using fluorescent annexin V conjugate as a fluorescent dye. We observed significant changes in apoptosis profile in Neuro-2a cells after 6-OHDA-treatment. […] Polyphenols 3, 6 and 13 diminished the neurotoxic effect of 6-OHDA-treatment.
The cells were incubated for 1 h in a 6-well plate (5 × 10^4 cells/mL) with polyphenolic compounds (10 µM). Then, 6-OHDA (100 µM) was added, and cell suspension was incubated for 24 h. After incubation, the maintenance media was collected, and the cells were washed by cold PBS twice and incubated with trypsin-EDTA solution. The cell suspension was washed with cold PBS twice again, centrifugated and then used for apoptosis detection by Muse® Annexin V & Dead Cell Kit in accordance with the manufacturer’s instructions (Luminex, Austin, TX, USA). The fluorescence was measured with Muse® Cell Analyzer (Luminex, Austin, TX, USA) and the data were processed by Muse 1.5 Analysis software (Luminex, Austin, TX, USA).

HSV-1 [5] = test: Virucidal activity, RT-PCR assay (HSV-1 pretreated with compounds); assay type: cell-based, HSV-1 strain L2; conditions: 0.1, 1 and 10 µg/mL
Method: Vero cells grown on 96-well plates were infected with the virus (100 TCID50/mL), pretreated with polyphenolic compounds at concentrations 0.1, 1 and 10 μg/mL. After 72 h of cell incubation, viral DNA was extracted from the supernatants, and the relative level of HSV-1 DNA was determined using RT-PCR. The effect of polyphenols on the relative level of viral DNA was assessed using the 2^−∆Ct method and reported as fold reduction compared to virus control.
(§2) The HSV-1 strain L2 obtained from N.F. Gamaleya Federal Research Centre for Epidemiology and Microbiology (Moscow, Russia) was grown in Vero cells as previously described.
(§3) We determined the direct inhibitory effect of polyphenolic compounds from M. amurensis heartwood on HSV-1 (virucidal effect). We mixed the virus at an infectious dose (100 TCID50/mL) with polyphenolic compounds (from 0.1 to 100 µg/mL) at a ratio of 1:1 (v/v) and incubated for an hour at 37 °C. Then, we infected the monolayer of Vero cells grown on 96-well plates (1 × 10^4 cells/well) with HSV-1 pretreated with the studied compounds. After 1 h adsorption at 37 °C, the cells were washed with phosphate-buffered saline (PBS) and overlaid by the maintenance medium with 1% FBS. The plates were incubated for 72 h at 37 °C in a CO2-incubator. The cytopathic effect (CPE) inhibition assay and real-time reverse transcription-PCR (RT-PCR) assay were used to evaluate virucidal effect of the tested compounds.
We performed the RT-PCR assay as we previously described in detail in [22]. Briefly, HSV-1 DNA was extracted after incubation from cell supernatants by using the DNA-sorb-AM (K1-12-100-CE) nucleic acid extraction kit (AmpliSens®, Moscow, Russia) according to the manufacturer′s instructions. We treated the supernatants with a lysis solution that contained guanidine chloride (chaotropic agent) in the presence of sorbent (silica particles). As the elution solution was added, the DNA was […] silica particles and separated from the sorbent particles by centrifugation.
We detected the DNA of HSV-1 in the obtained samples using the AmpliSens® HSV I, II-FRT-100F PCR kit (AmpliSens®, Moscow, Russia) on a real-time PCR instrument Rotor-Gene Q (Qiagen, Hilden, Nordrhein-Westfalen, Germany) according to the manufacturer′s instructions. The PCR reaction conditions were the following: initial denaturation at 95 °C for 15 min; then 5 cycles at 95 °C for 5 s, at 60 °C for 20 s, at 72 °C for 15 s; then 40 cycles at 95 °C for 5 s, at 60 °C for 20 s, and at 72 °C for 15 s. A negative sample was used as the amplification control for each run. The threshold cycle number Ct, was measured as the PCR cycle, where the amount of the amplified target reached the threshold value; the Ct values ≥ 37 indicated the absence of the HSV-1 DNA in the samples. We assessed the anti-HSV-1 activity of the studied compounds by the reduction in the viral DNA levels using the 2^−ΔCt method according to Equation (2):(2) ΔCt=Ctcv−Cttv where Ct is the threshold cycle number measured as the PCR cycle, where the amount of the amplified target reached the threshold value, […]

[6] = tested on: 6-OHDA-treated Neuro-2a cells; test: Mitochondrial membrane potential detection (TMRM) in 6-OHDA-treated cells; assay type: cell-based, murine; conditions: compound 10 µM; 6-OHDA 120 µM
Method: We determined the effect of polyphenolic compounds from M. amurensis on 6-OHDA-induced mitochondrial dysfunction in Neuro-2a cells (Figure 6a,b).
as §1, with “6” for “5”, “mitochondrial membrane potential” for “ROS levels”, “(a,b).” for “(a–d).”, “replicates. (*) and (***) indicate, respectively, p < 0.05 and p < 0.001 versus 6-OHDA-treated cells.” for “replicates.”
The cells were incubated for 1 h in a 96-well plate (1 × 10^4 cells/well) with polyphenolic compounds (0.1, 1 and 10 µM). Then, 6-OHDA (120 µM) was added, and cell suspension was incubated for 1 h. Cells incubated without 6-OHDA and compounds and with 6-OHDA alone were used as positive and negative control, respectively. The tetramethylrhodamine methyl (TMRM) (Sigma-Aldrich, St. Louis, MO, USA) solution (500 nM) was added to each well and cells were incubated for 30 min at 37 °C. The intensity of fluorescence was measured using a PHERAstar FSplate reader (BMG Labtech, Ortenberg, Germany) at λex = 540 nm and λem = 590 nm. The data were processed by MARS Data Analysis v. 3.01R2 (BMG Labtech, Ortenberg, Germany).

HSV-1 [7] = test: Virucidal activity, CPE inhibition assay (HSV-1 pretreated with compounds); assay type: cell-based, HSV-1 strain L2; conditions: CPE assay, virus pretreated with compound
Method: The antiviral activity of polyphenols from M. amurensis against HSV-1 was assessed using the cytopathic effect inhibition (CPE) assay. To study the inhibitory effect of polyphenolic compounds directly on the HSV-1 virus (direct virucidal activity), the monolayer of Vero cells grown on 96-well plates (1 × 10^4 cells/well) was infected with the virus (100 TCD50/mL), pretreated with different concentrations of polyphenolic compounds.
as §2, §3
We previously described this method in detail in [22]. We performed the MTT assay to evaluate the antiviral activity of polyphenolic compounds. The viral inhibition rate (IR, %) was calculated according to Equation (1):(1) IR, %=Atv−Acv/Acd−Acv×100, where Atv is the absorbance of cells infected with HSV-1 pretreated with the studied compounds,
We calculated the selectivity index (SI) as the ratio of CC50 to IC50. Experiments were repeated three times.

Nc1nc2c(ncn2COCCO)c(=O)[nH]1 [Acyclovir, reference compound]
Simultaneous Treatment SI (HSV-1 [1]; ratio of CC50 to IC50): 430
Simultaneous Treatment IC50 (HSV-1 [1]; virus and compound added to cells simultaneously, CPE assay): 2.1 ± 0.3 µg/mL
IC50 (HSV-1 [1]; virus and compound added to cells simultaneously, CPE assay, read-out: Simultaneous Treatment IC50): 9.3 ± 1.3 µM
IC50 (HSV-1 [2]; Human alphaherpesvirus 1, compound added after virus adsorption and penetration, CPE assay): 0.4 µg/mL and 1.8 µM
Treatment of Infected Cells SI (HSV-1 [2]; ratio of CC50 to IC50): >2500

retusin [Compound 3]
inhibition of ROS formation in 6-OHDA-treated Neuro-2a cells (in words) [3]: considerably inhibited ROS formation
Dead [4]: 1.18 ± 0.24%
Early apop. [4]: 19.63 ± 0.79 %
Late apop./Dead [4]: 11.31 ± 0.49%
Live [4]: 67.89 ± 1.52 %
virucidal activity against HSV-1 by RT-PCR (in words) (HSV-1 [5]): did not demonstrate virucidal activity
effect on mitochondrial membrane potential (in words) [6]: weak activity
virucidal activity against HSV-1 (in words) (HSV-1 [7]): did not show virucidal activity
